# Assay results: patent US20050080113A1, “Medicinal compositions” (priority 2001, published 2005)
row,SMILES,melting point
1,CCC(=O)Nc1cc(-c2sc(C3CCN(C)CC3)nc2-c2cccc(Cl)c2)ccn1.Cl.Cl,350 to 351 °C
2,Cc1cccc(-c2nc(NC(=O)NCCCl)sc2-c2ccnc(C)c2)c1,149 to 151 °C
3,CC(=O)Nc1cc(-c2sc(C3CCNCC3)nc2-c2cccc(Cl)c2)ccn1.Cl.Cl,193 to 195 °C
4,CCC(=O)Nc1cc(-c2sc(C3CCNCC3)nc2-c2cccc(Cl)c2)ccn1.Cl.Cl,202 to 203 °C
5,CCc1nc(-c2cccc(Cl)c2)c(-c2ccnc(N[C@@H](C)c3ccccc3)c2)s1.Cl,165 to 166 °C
6,"COc1ccc(-c2nc(N)sc2-c2ccncc2)cc1 [13-14, [4-(4-methoxyphenyl)-5-(4-pyridyl)-1,3-thiazol-2-yl]amine]",282 to 284 °C
7,"Nc1nc(-c2ccccc2)c(-c2ccncc2)s1 [13-15, [4-phenyl-5-(4-pyridyl)-1,3-thiazol-2-yl]amine]",248 to 250 °C
8,"Cc1cccc(-c2nc(-c3ccc(F)cc3)sc2-c2ccnc(NC(=O)Cc3ccccc3)c2)c1 [D 14, N-[4-[2-(4-fluorophenyl)-4-(3-methylphenyl)-1,3-thiazol-5-yl]-2-pyridyl]phenylacetamide]",187 to 190 °C
9,"COc1ccc(-c2nc(C)sc2-c2ccnc(NC(=O)Cc3ccccc3)c2)cc1 [D 15-1, N-[4 [4 (4 methoxyphenyl)-2 methyl-1,3 thiazol-5 yl]-2 pyridyl]phenylacetamide]",118 to 120 °C
10,"CCCCc1nc(-c2cccc(C)c2)c(-c2ccnc(NC(=O)Cc3ccccc3)c2)s1 [D 15-4, N-[4-[2-butyl-4-(3-methylphenyl)-1,3-thiazol-5-yl]-2-pyridyl]phenylacetamide]",92 to 93 °C
11,"CCCc1nc(-c2cccc(C)c2)c(-c2ccnc(NC(=O)CCc3ccccc3)c2)s1 [D 16-8, N-[4-[4-(3-methylphenyl)-2-propyl-1,3-thiazol-5-yl]-2-pyridyl]-3-phenylpropionamide]",103 to 104 °C
12,"Cc1cccc(-c2nc(-c3ccc(F)cc3)sc2-c2ccnc(NC(=O)c3ccccc3)c2)c1 [D 16-11, N-[4-[2-(4-fluorophenyl)-4-(3-methylphenyl)-1,3-thiazol-5-yl]-2-pyridyl]benzamide]",126 to 128 °C
13,"Cc1cccc(-c2nc(-c3ccc(F)cc3)sc2-c2ccnc(NC(=O)CCc3ccccc3)c2)c1 [D 16-12, N-[4-[2-(4-fluorophenyl)-4-(3-methylphenyl)-1,3-thiazol-5-yl]-2-pyridyl]-3-phenylpropionamide]",169 to 171 °C
14,"Cc1cccc(-c2nc(-c3ccccc3Cl)sc2-c2ccnc(NC(=O)c3ccccc3)c2)c1 [D 16-13, N-[4 [2 (2 chlorophenyl)-4 (3 methylphenyl)-1,3 thiazol-5 yl]-2 pyridyl]benzamide]",138 to 140 °C
15,"Cc1cccc(-c2nc(-c3ccccc3Cl)sc2-c2ccnc(NC(=O)CCc3ccccc3)c2)c1 [D 16-14, N-[4 [2 (2 chlorophenyl)-4 (3 methylphenyl)-1,3 thiazol-5 yl]-2 pyridyl]-3-phenylpropionamide]",156 to 158 °C
16,"CSc1ccc(-c2nc(-c3cccc(C)c3)c(-c3ccnc(NC(=O)c4ccccc4)c3)s2)cc1 [D 16-15, N-[4-[4-(3-methylphenyl)-2-(4-methylthiophenyl)-1,3-thiazol-5-yl]-2-pyridyl]benzamide]",180 to 182 °C
17,"CSc1ccc(-c2nc(-c3cccc(C)c3)c(-c3ccnc(NC(=O)CCc4ccccc4)c3)s2)cc1 [D 16-16, N-[4-[4-(3-methylphenyl)-2-(4-methylthiophenyl)-1,3-thiazol-5-yl]-2-pyridyl]-3-phenylpropionamide]",174 to 175 °C
18,"CSc1ccc(-c2nc(-c3cccc(C)c3)c(-c3ccnc(NC(=O)c4cccs4)c3)s2)cc1 [D 16-17, N-[4 [4 (3 methylphenyl)-2 (4 methylthiophenyl)-1,3 thiazol-5 yl]-2 pyridyl]-2-thiophenecarboxamide]",145 to 147 °C
19,"CSc1ccc(-c2nc(-c3cccc(C)c3)c(-c3ccnc(NC(=O)c4ccc5ccccc5c4)c3)s2)cc1 [D 16-18, N-[4 [4 (3 methylphenyl)-2 (4 methylthiophenyl)-1,3 thiazol-5 yl]-2 pyridyl]-2-naphthamide]",184 to 186 °C
20,"COc1ccc(-c2nc(C)sc2-c2ccnc(NCc3ccccc3)c2)cc1 [D 19-1, N-benzyl-N-[4 [4 (4 methoxyphenyl)-2 methyl-1,3 thiazol-5 yl]-2 pyridyl]amine]",132 to 133 °C
21,"Cc1cccc(-c2nc(-c3ccc(F)cc3)sc2-c2ccnc(NCc3ccccc3)c2)c1 [D 19-11, N-benzyl-N-[4 [2 (4-fluorophenyl)-4 (3 methylphenyl)-1,3 thiazol-5 yl]-2-pyridyl]amine]",143 to 146 °C
22,"Cc1cccc(-c2nc(-c3ccc(F)cc3)sc2-c2ccnc(NCCc3ccccc3)c2)c1 [D 19-12, N-[4 [2 (4 fluorophenyl)-4 (3 methylphenyl)-1,3 thiazol-5 yl]-2 pyridyl]-N-(2-phenylethyl)amine]",97 to 98 °C
23,"Cc1cccc(-c2nc(-c3ccccc3Cl)sc2-c2ccnc(NCc3ccccc3)c2)c1 [D 19-14, N-benzyl-N-[4 [2 (2-chlorophenyl)-4 (3 methylphenyl)-1,3 thiazol-5 yl]-2-pyridyl]amine]",84 to 88 °C
24,"Cc1cccc(-c2nc(-c3ccccc3Cl)sc2-c2ccnc(NCCc3ccccc3)c2)c1 [D 19-15, N-[4 [2 (2 chlorophenyl)-4 (3 methylphenyl)-1,3 thiazol-5 yl]-2 pyridyl]-N-(2-phenylethyl)amine]",113 to 114 °C
25,"Cc1cccc(-c2nc(-c3ccccc3Cl)sc2-c2ccnc(NCCCc3ccccc3)c2)c1 [D 19-16, N-[4 [2 (2 chlorophenyl)-4 (3 methylphenyl)-1,3 thiazol-5 yl]-2 pyridyl]-N-(3-phenylpropyl)amine]",101 to 102 °C
26,"CSc1ccc(-c2nc(-c3cccc(C)c3)c(-c3ccnc(NCc4ccccc4)c3)s2)cc1 [D 19-17, N-benzyl-N-[4-[4-(3-methylphenyl)-2-(4-methylthiophenyl)-1,3-thiazol-5-yl]-2-pyridyl]amine]",134 to 136 °C
27,"CSc1ccc(-c2nc(-c3cccc(C)c3)c(-c3ccnc(NCCc4ccccc4)c3)s2)cc1 [D 19-18, N-[4-[4-(3-methylphenyl)-2-(4-methylthiophenyl)-1,3-thiazol-5-yl]-2-pyridyl]-N-(2-phenylethyl)amine]",137 to 139 °C
28,"CSc1ccc(-c2nc(-c3cccc(C)c3)c(-c3ccnc(NCCCc4ccccc4)c3)s2)cc1 [D 19-19, N-[4-[4-(3-methylphenyl)-2-(4-methylthiophenyl)-1,3-thiazol-5-yl]-2-pyridyl]-N-(3-phenylpropyl)amine]",106 to 107 °C

# Continued, values first:
row,melting point,SMILES
1,242 to 244 °C,"Cc1cc(C)cc(-c2nc(N)sc2-c2ccncc2)c1 [23-133, [4 (3,5 dimethylphenyl)-5 (4 pyridyl)-1,3 thiazol-2 yl]amine]"
2,280 to 281 °C,"CC(=O)Nc1nc(-c2ccc(C(C)(C)C)cc2)c(-c2ccncc2)s1 [23-137, N-[4 [4 (1,1 dimethylethyl)phenyl]-5 (4 pyridyl)-1,3 thiazol-2 yl]acetamide]"
3,254 to 257 °C,"CC(C)(C)c1ccc(-c2nc(N)sc2-c2ccncc2)cc1 [23-143, [4 [4 (1,1 dimethylethyl)phenyl]-5 (4 pyridyl)-1,3 thiazol-2-yl]amine]"
4,292 to 294 °C,"CC(C)(C)c1ccc(-c2nc(NC(=O)c3ccccc3)sc2-c2ccncc2)cc1 [23-164, N-[4 [4 (1,1 dimethylethyl)phenyl]-5 (4 pyridyl)-1,3 thiazol-2 yl]benzamide]"
5,326 to 328 °C,"CC(C)(C)c1ccc(-c2nc(NC(=O)c3cccnc3)sc2-c2ccncc2)cc1 [23-165, N-[4 [4 (1,1 dimethylethyl)phenyl]-5 (4 pyridyl)-1,3 thiazol-2 yl]nicotinamide]"
6,309 to 311 °C,"CC(C)(C)c1ccc(-c2nc(NC(=O)C3CCCC3)sc2-c2ccncc2)cc1 [23-168, N-[4 [4 (1,1 dimethylethyl)phenyl]-5 (4 pyridyl)-1,3 thiazol-2 yl]cyclopentanecarboxamide]"
7,291 to 293 °C,"CCC(=O)Nc1nc(-c2cc(C)cc(C)c2)c(-c2ccncc2)s1 [23-194, N-[4 (3,5 dimethylphenyl)-5 (4 pyridyl)-1,3 thiazol-2-yl]propionamide]"
8,270 to 272 °C,"Cc1cc(C)cc(-c2nc(NC(=O)C(C)C)sc2-c2ccncc2)c1 [23-195, N-[4 (3,5 dimethylphenyl)-5 (4 pyridyl)-1,3 thiazol-2 yl]-2-methylpropionamide]"
9,226 to 229 °C,"Cc1cc(C)cc(-c2nc(NC(=O)Cc3ccccc3)sc2-c2ccncc2)c1 [23-196, N-[4 (3,5 dimethylphenyl)-5 (4 pyridyl)-1,3 thiazol-2 yl]-2-phenylacetamide]"
10,285 to 286 °C,"Cc1cc(C)cc(-c2nc(NC(=O)c3ccccc3)sc2-c2ccncc2)c1 [23-197, N-[4 (3,5 dimethylphenyl)-5 (4 pyridyl)-1,3 thiazol-2-yl]benzamide]"
11,275 to 278 °C,"Cc1cc(C)cc(-c2nc(NC(=O)C3CCCC3)sc2-c2ccncc2)c1 [23-198, N-[4 (3,5 dimethylphenyl)-5 (4 pyridyl)-1,3 thiazol-2-yl]cyclopentanecarboxamide]"
12,267 to 270 °C,"Cc1cc(C)cc(-c2nc(NC(=O)c3cccnc3)sc2-c2ccncc2)c1 [23-199, N-[4 (3,5 dimethylphenyl)-5 (4 pyridyl)-1,3 thiazol-2-yl]nicotinamide]"
13,202 to 203 °C,"CCNC(=O)Nc1nc(-c2cc(C)cc(C)c2)c(-c2ccncc2)s1 [23-201, N-[4 (3,5 dimethylphenyl)-5 (4 pyridyl)-1,3 thiazol-2 yl]-N′-ethylurea]"
14,128 to 130 °C,"CCCNC(=O)Nc1nc(-c2cc(C)cc(C)c2)c(-c2ccncc2)s1 [23-202, N-[4 (3,5 dimethylphenyl)-5 (4 pyridyl)-1,3 thiazol-2 yl]-N′-propylurea]"
15,269 to 270 °C,"Cc1cc(C)cc(-c2nc(NC(=O)c3cnccn3)sc2-c2ccncc2)c1 [23-246, N-[4 (3,5 dimethylphenyl)-5 (4 pyridyl)-1,3 thiazol-2-yl]pyrazinecarboxamide]"
